Data from patent US6350780B1, “Methods and compositions for drug delivery” (Allergan Sales, Inc., priority 1995, dated 2002).

What was measured:
[1] = tested on: eye of a mammal suffering high intraocular pressure; experiment: intraocular pressure after instillation into the eye of a mammal suffering high intraocular pressure; type: in vivo; conditions: topical instillation in ophthalmically acceptable carrier; mammal with high intraocular pressure
Experimental: This compound comprises the calcium chelator BAPTA blocked with three acetoxymethyl ester (AM) moieties, and containing a single N-linked pACE group in place. The compound is dissolved in an ophthalmically acceptable carrier for topical delivery to the eye. As indicated above, such prodrug-pACE compounds are specifically targeted to cilliary epithelial and retinal cells, without substiantially affecting other cell types. In the above formulation, based on Formula B, the compound will bind acetylcholine receptors and cell surface acetylcholinesterase without being hydrolyzed thereby. The electronically neutral prodrug is then transported or permitted to penetrate the cell membrane, where cytoplasmic esterases convert the prodrug-pACE into the tetraacetic acid form of BAPTA capable of modulating the intracellular concentration of free Ca^++, thereby providing a neuroprotective function.
The compound is instilled into the eye of a mammal suffering high intraocular pressure. The prodrug-pACE compound passes through the cornea and the drug is concentrated within ciliary epithelial and retinal ganglion cells.

[2] = tested on: cultured human non-pigmented ciliary epithelial (NPE) cells; experiment: regulatory volume decrease (RVD) following hyposmotic swelling of cultured NPE cells; type: cell-based; conditions: 20 µM BAPTA-AM loaded 30 minutes in isosmotic (290 mOsm) solution, then hyposmotic (198 mOsm) solution; cell volume by Coulter Counter; FIG. 1
Experimental: In this example, NPE cells were loaded in an isosmotic (290 mOsm) solution containing 20 µM BAPTA-AM for 30 minutes prior to suspension in a hyposmotoic (198 mOsm) solution. Control cells were subjected to the same hyposmotic solution but without prior loading with BAPTA. Changes in cell volume were measured using a Coulter Counter interfaced to a Coulter Channelyzer. It is noted that, following osmotic swelling, control cells regulate towards their original isosmotic volume while BAPTA-loaded cells remain swollen. The above findings indicate that intracellular BAPTA via chelation of Ca^2+i inhibits solute and osmotically obliged H2O efflux. Because the Ca^2+i-dependent ion flux pathways activated following osmotic cell swelling of NPE cells are involved in aqueous secretion, BAPTA will inhibit aqueous humor formation and, thus, lower IOP.

| Compound | intraocular pressure following treatment versus prior to treatment [1] | effect on regulatory volume decrease (RVD) [2] |
| --- | --- | --- |
| CC(=O)OCOC(=O)CN(CC(=O)OCOC(C)=O)c1ccccc1OCCOc1ccccc1N(CC(=O)OCOC(C)=O)CC(=O)OCOC(=O)CCC(=O)C(C)(C)C [Example 2] | significantly lower |  |
| CC(=O)OCOC(=O)CN(CC(=O)OCOC(C)=O)c1ccccc1OCCOc1ccccc1N(CC(=O)OCOC(C)=O)CC(=O)OCOC(C)=O [BAPTA-AM, acetoxymethyl ester of BAPTA] |  | totally depress |
